From patent US20020039780A1, “Salicyclic acid inducible genes and promoters” (priority 1998, published 2002)

Columns and labels:
Format in all cases: cell-based
C14-1b = experiment: Northern analysis of mRNA accumulation in cultured tobacco cells
Protocol: (§1) FIG. 2. Time course of SA-induced gene expression. Northern analysis of representative differential display genes following treatment of cultured tobacco cells with SA for the indicated time (in hours, except lanes 2-4, which refer to 10, 20, and 30 min.). Twenty micrograms of total RNA was loaded per lane. Blots were hybridized with ddPCR fragments indicated at right or with the β-ATPase gene as a loading control probe. Autoradiogram exposure times were optimized for each gene. The signal for C18-1 was enhanced by using the full length cDNA as probe. Labels on left indicate response class.
(§2) FIG. 4. Specificity of induction among SA analogs and other signalling compounds. Northern analysis of representative differential display genes following treatment of tobacco cells with 100 μM or 1 mM (left and right side of triangles, respectively) of the following chemicals for 2-2.5 hr: salicylic acid (SA, lanes 4 and 5), acetylSA (ASA, lanes 6 and 7), benzoic acid (BA, lanes 8 and 9), 4-hydroxybenzoic (4HBA, lanes 10 and 11), thiamine (thia, lanes 12 and 13), methyljasmonate (MJ, lanes 14 and 15), abscisic acid (ABA, lanes 16 and 17), or 2,4-dichlorophenoxyacetic acid (2,4-D, lanes 18 and 19). Control treatments are H2O (H, lane 1), 1% ethanol (E, solvent concentration in MJ treatments, lane 2), or 1% DMSO (D, solvent concentration in 2,4D treatments, lane 3). Blots were hybridized with ddPCR fragments indicated at right or with the β-ATPase geneas a loading control probe. Autoradiogram exposure times were optimized for each gene. The signal for C18-1 was enhanced by using the full length cDNA as probe. Labels on left indicate response class.
(§3) Differential display technology (Liang, P. and Pardee, A. B., Science 257: 967-971, 1992) was used to identify genes activated in the presence of SA, CHX and both. Therefore the absence or presence of SA, induction at 3 timepoints of SA-treatment, 2 different concentrations of SA and the effect of addition of CHX were measured. Seven treatments in total were performed. Treatment of tobacco BY-2 suspension cells and leaves and differential display PCR reactions were performed as described (Horvath and Chua (1996), Plant Mol. Biol. 31, 1061-1072).
(§4) The specificity for induction by SA was tested by treating tobacco cells with a range of SA analogs and plant signalling compounds at 0.1 and 1 mM for approximately 2.5 h. […] Among the SA-analogs, acetyl-SA (ASA, aspirin), benzoic acid (BA) and 4-hydroxybenzoic acid (4HBA), responses generally reflected the ability of the analog to substitute for SA in other cellular responses (Yalpani, N. et al., Plant Cell 3: 809-818, 1991, Yang, Y. and Klessig, D. F., Proc. Natl. Acad. Sci. 93, 14972-14977, 1996). […] Several genes, including those for proteinase inhibitors and lipoxygenase (Hildmann, T. et al., Plant Cell 4: 1157-1170, 1992; Melan, M. A. et al., Plant Physiol. 101: 441-450, 1993; Xu, D. et al., Plant Mol. Biol. 22: 573-588, 1993) are known to be under dual regulation by MJ and ABA. A similar mode of regulation may be in effect with C14-1b. the auxin 2,4-D induced several genes including C18-1/EREBP1 and C6-2.

C6-2 = experiment: as above
Protocol: as §1, §2, §3, §4

G3-2 = experiment: as above
Protocol: (§5) FIG. 1. Four classes of SA-induced early genes. Northern analysis of genes identified by differential display. Gel-purified DNA fragments produced by ddPCR were either used directly for random-primed labeling and probing of Northern filters (e.g. C7-1, C6-1, and G9-2) or first subcloned and released by restriction digest. Each lane contains 1 μg of poly(A) mRNA from cultured tobacco cells treated with (1) H2O, 4 hr; (2) 200 μM SA, 4 hr; (3) 71 μM CHX, 5 hr; (4) 71 μM CHX, 5 hr plus 200 μM SA after 1 hr (4 hr total); (5) 20 μM SA, 2 hr; (7) 200 μM SA, 8 hr. One blot was sequentially hybridized with the G1-1 fragment and the β-ATPase gene as a loading control probe. response classes (I-IV) are indicated on the left of the autoradiograms.
as §1, §2, §3, §4

[1] = tested on: early SA-induced genes identified by differential display; experiment: Northern analysis of differential display genes in cultured tobacco cells
Protocol: as §5, with “Four classes of SA-induced early genes.” left out, “hr.” for “hr. One blot was sequentially hybridized with the G1-1 fragment and the β-ATPase gene as a loading control probe. response classes (I-IV) are indicated on the left of the autoradiograms.”
as §2, with “The signal for C18-1 was enhanced by using the full length cDNA as probe.” left out
as §3
The specificity for induction by SA was tested by treating tobacco cells with a range of SA analogs and plant signalling compounds at 0.1 and 1 mM for approximately 2.5 h. […] Several genes, including those for proteinase inhibitors and lipoxygenase (Hildmann, T. et al., Plant Cell 4: 1157-1170, 1992; Melan, M. A. et al., Plant Physiol. 101: 441-450, 1993; Xu, D. et al., Plant Mol. Biol. 22: 573-588, 1993) are known to be under dual regulation by MJ and ABA.

[2] = 0.1 and 1 mM, approximately 2.5 h

O=C(O)c1ccccc1O [SA, salicylic acid]
induction of C14-1b (C14-1b; [2]): did not reveal response
time at which C14-1b induction is apparent (C14-1b; SA time course): 2 to 2.5 h
time of peak C14-1b expression (C14-1b; SA time course): 5 h
C6-2 induction at 0.1 mM versus 1 mM (C6-2; [2]): greater induction at 1mM
time at which C6-2 induction is apparent (C6-2; SA time course): ≤ 10 min
time of peak C6-2 mRNA (C6-2; SA time course): approximately 1.5 h
time of reduction of C6-2 mRNA to background levels (C6-2; SA time course): ≤ 4 h
G3-2 mRNA levels at 20 μM SA (G3-2; 20 μM SA): comparable to those at 200 μM
G3-2 induction at 0.1 mM versus 1 mM (G3-2; [2]): equal or greater induction at 0.1 mM versus 1 mM
G3-2 mRNA levels between 2 and 12 h (G3-2; SA time course): increased steadily
time before which G3-2 is not detectably activated (G3-2; SA time course): ≥ 2 h
sensitivity of G3-2 to SA (G3-2; data not shown): similarly sensitive as G8-1
induction of most of the genes at 20 μM SA ([1]; 20 μM SA): little or none
induction of most of the genes at 200 μM SA ([1]; 200 μM SA): clear induction
